Results: patent US20230104487A1, “11-(4-CHLOROPHENYL)-4-(2,3-DIHYDRO-1H-INDOLE-1-CARBONYL)-3,11-DIMETHYL-5,10,DIOXATRICYCLO[7.4.0.0,2,6,]TRIDECA-1,3,6,8-TETRAEN-13-ONE AND DERIVATIVES AS DESTABILIZER OF CRY1 FOR THE TREATMENT OF CIRCADIAN RHYTHM ASSOCIATED DISEASES AND DISORDERS” (KOC UNIVERSITESI, priority 2019, published 2023)

Columns and labels:
[1] = biological target: T1, CRY2 (Homo sapiens, UniProt Q49AN0); assay: Protein immunoblot, unsynchronized U2-OS cells, CRY2; type: cell-based; conditions: Western blot
T1 construct: To evaluate the effect of FORMULA I on the endogenous protein and mRNA level of clock genes; endogenous in cells; host or cells: U2-OS
T1 sequence (Q49AN0 1-593): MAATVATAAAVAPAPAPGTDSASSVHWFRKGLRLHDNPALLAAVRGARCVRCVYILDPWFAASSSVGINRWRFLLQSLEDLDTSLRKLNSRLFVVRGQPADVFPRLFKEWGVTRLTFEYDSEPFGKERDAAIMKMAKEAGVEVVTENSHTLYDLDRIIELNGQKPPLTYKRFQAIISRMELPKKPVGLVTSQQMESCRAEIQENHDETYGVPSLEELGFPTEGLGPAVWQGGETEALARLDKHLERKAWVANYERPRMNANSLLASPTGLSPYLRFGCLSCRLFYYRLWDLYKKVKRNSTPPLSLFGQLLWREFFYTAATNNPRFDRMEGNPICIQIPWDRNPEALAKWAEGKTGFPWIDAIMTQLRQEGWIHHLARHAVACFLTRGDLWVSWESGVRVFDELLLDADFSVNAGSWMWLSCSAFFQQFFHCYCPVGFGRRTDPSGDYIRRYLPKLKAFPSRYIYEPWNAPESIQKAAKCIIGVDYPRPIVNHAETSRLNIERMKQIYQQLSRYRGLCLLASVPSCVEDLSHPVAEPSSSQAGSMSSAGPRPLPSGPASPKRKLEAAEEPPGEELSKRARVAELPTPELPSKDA
Procedure: Cells were lysed in RIPA buffer (50 mM Tris, 150 mM NaCl, 1% Triton-X, 0.1% SDS) with fresh Protease inhibitor cocktail (PIC). After centrifugation at 13000 rpm for 15 minutes at 4° C., supernatant was used to determine the protein amount using Pierce Protein Assay (Thermo Scientific) according to the manufacturer's instruction. Mice liver samples were homogenized and lysed with Dounce homogenizer and RIPA buffer. After homogenization samples were incubated 10 minutes on ice. After centrifugation 13000 rpm 15 minutes at 4° C. supernatant was used for the whole cell lysate. Subcellular fractionation of liver samples: Liver samples were homogenized with cytosolic lysis buffer (10 mM HEPES pH 7.9, 10 mM KCl, 0.1 mM EDTA, 0.05% NP40, proteasome inhibitor) by pipetting 40 times with a cut tip. Then samples were incubated 10 minutes on ice and centrifuged for 3 minutes at 3000 rpm at 4° C. Supernatant was saved in a new tube, and pellet was processed for the nuclear fraction. Supernatant was centrifuged at 13000 rpm for 3 minutes at 4° C. where new supernatant saved as the cytosolic fraction. […] ECL buffer system (Advansta WesternBright) was used to visualize HRP chemi-luminescence via BioRad ChemiDoc Touch visualizer.

[2] = Brain tissue levels in mice; type: in vivo, mouse; conditions: 100 mg/kg i.p.
Procedure: C57BL/6J female mice (n=4 per each time point) were treated with 100 mg/kg single dose of FORMULA I intraperitoneally. Blood samples were collected 0, 0.5, 1, 2, 4, 8, 12 and 24 h after administration of FORMULA I by cardiac puncture under isoflurane anesthesia. Plasma was obtained by centrifugation from heparinized tubes and stored at −80° C. until analysis. Brain tissues were quickly removed and stored at −80° C. for further processing. For assessment of the brain exposure of FORMULA I, levels in this tissue were only determined at 2nd (n=2) and 4th (n=2) hours according to maximum concentrations of the molecule in plasma.
Liquid chromatography coupled to tandem mass spectrometry (LC-MS/MS) was used to obtain high mass accuracy data of the analytes in plasma samples for the determination of FORMULA I and Internal standard (IS) Loratadine. […] The optimized conditions of the electrospray ionization (ESI) source were as follows: gas temperature, 300° C.; gas flow, 10 L/min; nebulizer pressure, 25 psi; capillary voltage, 5500 V. ESI in the positive ion mode provides the best results for FORMULA I. For MS-MS detection, the protonated molecules were selected as precursor ions and the most abundant fragment ions obtained at collision energy of 22-20 eV were monitored as the product ions for FORMULA I and IS. […]

Cc1c(C(=O)N2CCc3ccccc32)oc2ccc3c(c12)C(=O)CC(C)(c1ccc(Cl)cc1)O3 (stereo not drawn) [FORMULA I, 11-(4-chlorophenyl)-4-(2,3-dihydro-1H-indole-1-carbonyl)-3,11-dimethyl-5,10,dioxatricyclo[7.4.0.0,2,6,]trideca-1,3,6,8-tetraen-13-one]
level of CRY2 [1]: CRY2 levels were comparable | blood-brain barrier crossing [2]: crosses the blood-brain barrier | detection in brain tissue ([2]; 2nd and 4th hours): detected in the brain tissue
